Results taken from ChEMBL document CHEMBL1149938, “New 7-aryl analogues of anthracyclines: Synthesis and cytotoxic activity of ()-7-(3,4,5-trimethoxyphenyl)-7-deoxyidarubicinone” (Bioorg Med Chem Lett, 1997).

Legend:
Format in all cases: functional, cell-based
[1] = test system: A549; assay: Compound was evaluated for the cytotoxicity against A-549 tumor cell line after 3 days of incubation; conditions: Homo sapiens, A549, 72 h
[2] = test system: P388; assay: Compound was evaluated for the cytotoxicity against P-388 tumor cell line after 3 days of incubation; conditions: Mus musculus, P388, 72 h
[3] = test system: SK-MEL-28; assay: Compound was evaluated for the cytotoxicity against MEL-28 tumor cell line after 3 days of incubation; conditions: Homo sapiens, SK-MEL-28, 72 h
[4] = test system: HT-29; assay: Compound was evaluated for the cytotoxicity against HT-29 tumor cell line after 3 days of incubation; conditions: Homo sapiens, HT-29, 72 h

Question: Which IC50 [1] does the source give for `C#C[C@@]1(O)C[C@H](c2cc(OC)c(OC)c(OC)c2)[C@@H]2C(=O)c3c(c(O)c4ccccc4c3O)C(=O)[C@@H]2C1` here?
Answer: 0.5 µM

Question: And the IC50 [2]?
Answer: 0.5 µM

Question: And the IC50 [3]?
Answer: 0.5 µM

Question: And the IC50 [4]?
Answer: 0.5 µM

Question: What does the source list for `COc1cc([C@H]2CC(=O)C[C@H]3C(=O)c4c(c(O)c5ccccc5c4O)C(=O)[C@@H]23)cc(OC)c1OC`?
Answer: IC50 [1]: 5 µM; IC50 [2]: 5 µM; IC50 [3]: 5 µM; IC50 [4]: 5 µM

Question: Which results are given for `C#C[C@]1(O)Cc2c(O)c3c(c(O)c2[C@@H](c2cc(OC)c(OC)c(OC)c2)C1)C(=O)c1ccccc1C3=O`?
Answer: IC50 [1]: > 10 µM; IC50 [2]: > 10 µM; IC50 [3]: > 10 µM; IC50 [4]: > 10 µM

Question: Which IC50 [1] does the source give for `COc1cc([C@H]2C[C@](O)(C(C)=O)Cc3c(O)c4c(c(O)c32)C(=O)c2ccccc2C4=O)cc(OC)c1OC` here?
Answer: > 10 µM

Question: What about the IC50 [2] of the same molecule?
Answer: > 10 µM

Question: What about the IC50 [3] of the same molecule?
Answer: > 10 µM

Question: What about the IC50 [4] of the same molecule?
Answer: > 10 µM

Question: How did the IC50 [1] turn out when `COc1cc([C@H]2C[C@](O)(C(C)=O)C[C@H]3C(=O)c4c(c(O)c5ccccc5c4O)C(=O)[C@@H]23)cc(OC)c1OC` was run?
Answer: 5 µM

Question: What about the IC50 [2] of the same molecule?
Answer: 5 µM

Question: What about the IC50 [3] of the same molecule?
Answer: 5 µM

Question: And the IC50 [4]?
Answer: 5 µM

Question: With `COc1cccc2c1C(=O)c1c(O)c3c(c(O)c1C2=O)C[C@@](O)(C(=O)CO)C[C@@H]3O[C@H]1C[C@H](N)[C@H](O)[C@H](C)O1` [DOXORUBICIN] as the molecule, how does the IC50 [1] read?
Answer: 0.02 µM

Question: And the IC50 [2]?
Answer: 0.02 µM

Question: And the IC50 [3]?
Answer: 0.02 µM

Question: What about the IC50 [4] of the same molecule?
Answer: 0.02 µM
